Measured values from patent US20060211606A1, “Peptides” (priority 2005, published 2006).
*1 amine or outer side, *2 acyl side, *3 side chain or, on linkers, in order; H or OH if unused. [ ]: non-standard residue; d: D form. PEG (Jeffamine) = not defined here; Suc = O=C(CCC(=O)[*:2])[*:1]

Key:
C2C12 muscle cells = experiment: C2C12 proliferation, Alamar Blue assay; assay type: cell-based, mouse; conditions: 2000 cells per well; 2, 5, 50 and 100 ng/ml; medium with IGF-I 2 ng per ml; 36 hours
Procedure: (A) DMGF and CMGF Peptides: C2C12 Cells were provided at 2000 cell/well, in a medium containing DMEM (1000 mg/L glucose), plus BSA(100 ug/ml), plus IGF-I (2 ng per ml) and incubated for 36 hours. Cell proliferation was then assessed using an Alamar Blue assay. […] Y-axis values are fluorescence (wavelength of excitation 535 nm, measurement at 590 nm; mean plus standard error) in an Alamar Blue assay.
The 8 amino acid peptides described in 1.3.1 above and referred to in FIG. 8A as DMGF and CMGF were tested for the ability to induce proliferation of C2C12 muscle cells at a density of 2000 cells per well in a medium containing DMEM (1000 mg/L glucose), BSA (10 ug/ml) and IGF-I (2 ng per ml). Concentrations of 2, 5, 50 and 100 ng/ml of DMGF and CMGF were tested (See the left-hand and middle sets of results in FIG. 8), along with 2, 5, 50 and 100 ng/ml IGF-I alone (See the right-hand set of results in FIG. 8). After 36 hours incubation, an Alamar Blue assay was used to assess the level of cell proliferation achieved. A control containing only the medium was also provided.

[1] = test system: primary cultures derived from congenital muscular dystrophy (CMD); experiment: Desmin positive cell proliferation, primary cultures from congenital muscular dystrophy (CMD); assay type: cell-based, human; conditions: for desmin positive cells as percentage of total cells: peptide alone, 10 ng/ml, mean±s.d.
From the text: (§1) Human primary muscle cell cultures were isolated as previously described [Lewis et al., 2000; Sinanan et al., 2004]. Briefly, following informed consent, craniofacial (masseter) muscle biopsies were obtained from healthy adult and CMD patients during elective surgery at the Eastman and Middlesex Hospitals, London, UK. Human lower limb (vastus lateralis) muscle samples were obtained from consenting, adult healthy, FSHD and ALS patients by needle biopsy under local anaesthesia at the Royal Free Hospital, London, UK. Biopsies were pooled from several patients with the same disorder to obtain sufficient cell numbers in the primary cultures. These were washed with antibiotic (penicillin, 100 U/ml; streptomycin, 100 μg/ml; fungizone, 2.5 μg/ml; Invitrogen) supplemented DMEM (high glucose; Invitrogen), scissor-minced and tissue fragments plated into 0.2% gelatin-coated (Sigma-Aldrich) T150 cm^2 culture flasks (Helena Biosciences). Explant cultures were incubated in serum-containing Growth Media (sGM), composed of DMEM, 20% FCS (PAA Laboratories), penicillin (100 U/ml) and streptomycin ([…]) (Invitrogen), and maintained at 37° C. in humidified 95% air with 5% CO2. The first wave of migration of mononuclear cells from the explant was designated the […]-wave and this population was used throughout this study. Migratory human muscle cell were enzymatically harvested using trypsin-EDTA (Invitrogen) and subcultured in sGM until 70-80% confluency. Passage number x (Px), was defined as the xth sequential harvest of subconfluent cells. All experiments were performed using P3-5 cohorts. The expanded cells were then stored under cryogenic conditions until they were used in the experiments described below. At least 6 runs were made for each of the treatments used for each diseased muscle culture as well as for the two types of healthy muscle.
(§2) Assessment of the number of myogenic precursors was performed as described previously (Sinanan et al., 2004). Cells were re-plated on gelatin-coated (0.2%) 13 mm coverslips at an initial density of 4.5×10^3 cells cm^−2. […]
(§3) At the appropriate time-points, cells were fixed with methanol for 10 min (−20° C.), followed by detergent permeabilization with 0.5% Triton-X100 for 10-15 min. […] Cell-associated fluorescence and morphology, were visualized by epi-fluorescence and Leica Modulation Contrast (LMC) microscopy respectively, using an inverted Leica DMIRB microscope equipped with Leica FW4000 image processing software. For the proliferation assay, all blue and green fluorescent positive cells were counted in a field. […]

muscle cells from FSHD = experiment: Desmin positive cell proliferation, muscle cells from FSHD; assay type: cell-based, human; conditions: for desmin positive cells as percentage of total cells: peptide alone, 10 ng/ml, mean±s.d.
From the text: as §1, with “The expanded cells were then stored under cryogenic conditions until they were used in the experiments described below. At least 6 runs were made for each of the treatments used for each diseased muscle culture as well as for the two types of healthy muscle.” left out
as §3

[2] = test system: normal craniofacial (masseter) primary cultures; experiment: Desmin positive cell proliferation, normal craniofacial (masseter) primary cultures; assay type: cell-based, human; conditions: for desmin positive cells as percentage of total cells: peptide alone, 10 ng/ml, serum-free defined media, mean±s.d.
From the text: as §1, §2, §3

[3] = test system: tibialis anterior muscle of non-dystrophic mice; experiment: Intramuscular injection into tibialis anterior of non-dystrophic mice, muscle strength; assay type: in vivo; conditions: i.m. twice weekly 25 μl containing 17 μg, within a few weeks
infarcted murine heart = experiment: Murine myocardial infarction (LAD ligation), pressure/volume loops; assay type: in vivo, mice; conditions: murine MI by LAD ligation; systemic administration
Procedure: All panels show pressure (mmHg) on the Y-axis and Relative Volume Units on the X-axis.
Additional experiments were carried out on mice. In these studies the MI was produced by ligating the left anterior descending (LAD) coronary artery of the murine heart. This causes dilation of the left ventricle, the progression of which leads to heart failure. […] Therefore there is considerable potential for treatment of patients immediately following a heart attack.

[4] = Stability to proteolytic cleavage in fresh human plasma, Western blotting; conditions: fresh human plasma plus PBS, 37° C., 24 hours
Procedure: Western blotting was then used to assess the survival of each peptide over those time intervals: A=0 minutes; B=30 minutes; C=2 hours; D=24 hours.
Stability may be assessed in terms of half-life in human plasma or by any other suitable technique. In particular, stability can be measured by assessing peptides' susceptibility to proteolytic cleavage in fresh human plasma according to the technique of Example 5.1 below, in which the plasma was stored until used at −70° C., 10 μg of peptide was added to 2 ml of plasma, plus 7 ml of PBS and the mixture was incubated at 37° C. for different time intervals. Western blotting was then used to detect each peptide over those time intervals.
The plasma was stored until used at −70° C. 10 μg of peptide were added to 2 ml of plasma, plus 7 ml of PBS. This mixture was incubated at 37° C. for different time intervals.
Like biological activity, stability was scored on a scale of 0 to 3.
Stability was determined as the amount of the peptide that remained intact and bound to the specific antibody in the following way:

[5] = stabilised peptide in combination with IGF-I

| Substance | proliferation of C2C12 cells (Alamar Blue fluorescence) (C2C12 muscle cells) | desmin positive cells as percentage of total cells [1] [%] | desmin positive cells as percentage of total cells (muscle cells from FSHD) [%] | desmin positive cells as percentage of total cells ([2]; normal craniofacial) [%] | increase in muscle strength [3] | strength and function of the heart by pressure/volume loops (infarcted murine heart) | peptide detected by Western blotting after 24 hours [4] | desmin positive cells as percentage of total cells, IGF-I added [1, 5] [%] | desmin positive cells as percentage of total cells, plus anti-IGF-I receptor antibody Ab-1 ([1]; stabilised peptide plus Ab-1) [%] | desmin positive cells as percentage of total cells, IGF-I added (muscle cells from FSHD; [5]) [%] | desmin positive cells as percentage of total cells, IGF-I added ([2]; normal craniofacial, stabilised peptide in combination with IGF-I (10 ng/ml each)) [%] | desmin positive cells as percentage of total cells, plus anti-IGF-I receptor antibody Ab-1 ([2]; normal muscle, stabilised peptide plus Ab-1) [%] |
| --- | --- | --- | --- | --- | --- | --- | --- | --- | --- | --- | --- | --- |
| IGF-I: IGF-I receptor binding domain encoded by Exons 3 and 4, common to all splice variants, approximately 70 amino acids [reference compound] | statistically different to the control value | 13.2±1.7 | 14.1±1.6 | 58.4±4.2 |  |  |  |  |  |  |  |  |
| stabilised peptide: SEQ ID NO: 15 with D-Arginine at positions 14 and 15, N-terminus attached to PEG (Jeffamine) via succinic acid bridge, amidated at C-terminus ({PEG (Jeffamine)-Suc}-YQPPSTNKNTKSQ[dR][dR]KGSTFEEHK-NH2; reading uncertain) |  | 17.5±1.6 | 20.4±2.1 | 68.8±3.9 | more than 25% | markedly improved the strength and function of the heart | detected in abundance | 13.1±1.2 | 16.7±1.8 | 14.5±1.4 | 59.5±4.2 | 71.1±6.2 |
